{
  "source": "ChEMBL document CHEMBL1201862",
  "about": "“PubChem BioAssay data set” (2004)",
  "key": {"[1]": {"tested_on": "Vero", "assay": "host cell cytotoxicity of antiviral hits, dose response, cytotoxicity control for West Nile virus antiviral project, secondary assay (AID 1650)", "format": "functional", "settings": "Chlorocebus sabaeus"}, "[2]": {"tested_on": "Vero", "assay": "West Nile virus antiviral activity, cell-based, CPE readout (AID 1621)", "format": "functional", "settings": "Chlorocebus sabaeus"}, "[3]": {"assay": "SK-MEL-5 parental cell viability reduction, dose response, orthogonal assay for MITF inhibitor project, CellTiter-Glo luminescence, dry powder, set 8 (AID 651586)", "format": "functional, cell-based"}, "[4]": {"assay": "TRPM1 promoter luciferase reporter signal decrease, dose response, MITF inhibitor project, cell-based, SK-MEL-5, dry powder, set 9 (AID 651588)", "format": "functional"}, "[5]": {"assay": "MITF Orthogonal Assay: SK-MEL-5 CTG Assay Measured in Cell-Based System Using Plate Reader - 2084-02_Inhibitor_Dose_DryPowder_Activity_Set7.", "format": "functional"}, "[6]": {"assay": "MITF: Counter assay: A375 proliferation Measured in Cell-Based System Using Plate Reader - 2084-03_Inhibitor_Dose_DryPowder_Activity_Set8.", "format": "functional", "settings": "A-375"}, "[7]": {"assay": "MITF Orthogonal Assay: MALME3 CTG Assay Measured in Cell-Based System Using Plate Reader - 2084-04_Inhibitor_Dose_DryPowder_Activity_Set6.", "format": "functional", "settings": "MALME-3"}, "[8]": {"assay": "A375 melanoma cell viability loss, dose response, counter-screen for MITF modulator project, CellTiter-Glo luminescence, dry powder, set 9 (AID 651591)", "format": "functional, cell-based", "settings": "A-375"}, "[9]": {"assay": "TRPM1 promoter luciferase reporter signal decrease, dose response, MITF inhibitor project, cell-based, SK-MEL-5, dry powder, set 8 (AID 624430)", "format": "functional"}, "[10]": {"assay": "MALME3 melanoma cell viability reduction, dose response, orthogonal assay for MITF inhibitor project, CellTiter-Glo luminescence, dry powder, set 5 (AID 651584)", "format": "functional, cell-based", "settings": "MALME-3"}, "[11]": {"biological_target": "5-hydroxytryptamine receptor 5A (Homo sapiens, UniProt P47898)", "sequence (P47898 whole entry)": "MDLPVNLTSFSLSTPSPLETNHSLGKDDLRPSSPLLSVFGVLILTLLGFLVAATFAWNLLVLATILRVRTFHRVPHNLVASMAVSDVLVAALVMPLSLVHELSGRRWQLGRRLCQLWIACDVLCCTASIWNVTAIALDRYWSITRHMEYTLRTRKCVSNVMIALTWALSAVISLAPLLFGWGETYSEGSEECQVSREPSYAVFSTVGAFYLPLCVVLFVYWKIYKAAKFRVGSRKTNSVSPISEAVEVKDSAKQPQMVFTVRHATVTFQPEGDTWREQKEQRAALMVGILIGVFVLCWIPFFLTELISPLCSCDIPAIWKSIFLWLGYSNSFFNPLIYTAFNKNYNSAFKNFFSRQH", "assay": "Counterscreen for agonists of OPRM1-OPRD1 heterodimerization: luminescence-based cell-based high throughput dose response assay to identify agonists of 5-hydroxytryptamine (serotonin) 5A receptor (HTR5A). [Related pubchem assays (depositor defined):AID504326, AID504355, AID504692, AID504904, AID504905]", "format": "functional"}, "[12]": {"assay": "Concentration-dependent survival of SW480 colon cancer line, luminescence detection with CellTiter-Glo, half-maximal inhibitory concentration (AID 1117338)", "format": "functional"}, "[13]": {"biological_target": "Delta-type opioid receptor (Homo sapiens, UniProt P41143)", "sequence (P41143 whole entry)": "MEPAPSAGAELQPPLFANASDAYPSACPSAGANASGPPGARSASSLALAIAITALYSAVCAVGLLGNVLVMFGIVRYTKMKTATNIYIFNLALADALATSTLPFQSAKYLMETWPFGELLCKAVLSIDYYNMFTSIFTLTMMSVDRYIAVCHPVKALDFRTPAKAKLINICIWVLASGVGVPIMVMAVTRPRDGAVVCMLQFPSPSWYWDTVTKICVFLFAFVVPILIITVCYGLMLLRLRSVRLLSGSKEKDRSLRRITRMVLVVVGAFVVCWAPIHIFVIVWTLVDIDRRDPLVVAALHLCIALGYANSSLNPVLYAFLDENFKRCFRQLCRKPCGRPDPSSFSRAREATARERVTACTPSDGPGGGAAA", "assay": "Counterscreen for agonists of heterodimerization of the mu 1 (OPRM1) and delta 1 (OPRD1) opioid receptors: Luminescence-based cell-based high throughput dose response assay to identify agonists of OPRD1 homodimerization. [Related pubchem assays (depositor defined):AID504326, AID504355, AID504692, AID504904, AID504905]", "format": "functional"}, "[14]": {"biological_target": "Mu-type opioid receptor (Homo sapiens, UniProt P35372)", "sequence (P35372 whole entry)": "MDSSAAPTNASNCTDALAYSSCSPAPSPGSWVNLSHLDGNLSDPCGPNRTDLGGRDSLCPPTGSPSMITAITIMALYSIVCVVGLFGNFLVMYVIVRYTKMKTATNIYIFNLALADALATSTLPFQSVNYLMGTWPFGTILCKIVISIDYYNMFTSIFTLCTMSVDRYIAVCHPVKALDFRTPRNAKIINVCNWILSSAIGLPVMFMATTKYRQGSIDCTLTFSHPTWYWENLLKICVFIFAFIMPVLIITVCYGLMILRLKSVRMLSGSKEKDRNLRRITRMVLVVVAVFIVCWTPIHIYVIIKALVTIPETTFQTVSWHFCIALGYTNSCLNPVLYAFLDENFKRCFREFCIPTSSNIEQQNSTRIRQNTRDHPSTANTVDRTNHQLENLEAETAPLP", "assay": "Counterscreen for agonists of heterodimerization of the mu 1 (OPRM1) and delta 1 (OPRD1) opioid receptors: Luminescence-based cell-based high throughput dose response assay to identify agonists of OPRM1 homodimerization.", "format": "functional"}, "[15]": {"assay": "CellTiter-Glo luminescent dose response of DLD-1 viability loss (AID 1117352)", "format": "functional"}, "[16]": {"assay": "cytotoxicity toward HT-29 cells – cell-based, CellTiter-Glo luminescence, IC50, dose response (AID 1117330)", "format": "functional"}, "[17]": {"assay": "RKO cell viability reduction, dose response, CellTiter-Glo luminescence (AID 1117322)", "format": "functional"}, "[18]": {"assay": "HeLa 4N DNA content increase, dose response, cell-based, IC50 (AID 1117351)", "format": "functional"}, "[19]": {"assay": "HeLa 2N DNA content increase, dose response, cell-based, IC50 (AID 1117349)", "format": "functional"}, "[20]": {"assay": "cytotoxicity toward HCT116 cells – cell-based, CellTiter-Glo luminescence, IC50, dose response (AID 1117332)", "format": "functional", "settings": "HCT-116"}, "[21]": {"assay": "SNU-C1 cell viability reduction, dose response, CellTiter-Glo luminescence (AID 1117323)", "format": "functional, cell-based"}, "[22]": {"assay": "cytotoxicity toward Colo320 cells – cell-based, CellTiter-Glo luminescence, IC50, dose response (AID 1117334)", "format": "functional", "settings": "COLO 320"}, "[23]": {"assay": "HCT116 cell viability decrease, GSK3B pretreatment – CellTiter-Glo, IC50, dose response (AID 1117339)", "format": "functional", "settings": "HCT-116"}, "[24]": {"biological_target": "RNA-editing ligase 1, mitochondrial (Trypanosoma brucei brucei, UniProt P86926)", "sequence (P86926 whole entry)": "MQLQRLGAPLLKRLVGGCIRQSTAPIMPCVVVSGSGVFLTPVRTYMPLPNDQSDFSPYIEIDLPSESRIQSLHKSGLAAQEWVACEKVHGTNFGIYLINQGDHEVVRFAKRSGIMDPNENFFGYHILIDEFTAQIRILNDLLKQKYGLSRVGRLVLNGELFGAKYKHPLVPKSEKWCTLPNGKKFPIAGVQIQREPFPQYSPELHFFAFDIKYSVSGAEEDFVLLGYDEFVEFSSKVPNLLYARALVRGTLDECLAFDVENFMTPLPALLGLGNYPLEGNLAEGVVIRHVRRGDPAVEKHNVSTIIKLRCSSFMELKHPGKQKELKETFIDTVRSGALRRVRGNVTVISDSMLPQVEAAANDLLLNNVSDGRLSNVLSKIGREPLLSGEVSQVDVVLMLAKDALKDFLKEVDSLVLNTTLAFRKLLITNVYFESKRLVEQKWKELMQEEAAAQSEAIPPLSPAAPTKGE", "assay": "TbREL1 ligase inhibitors, dose response, biochemical, fluorescence, Trypanosoma brucei (AID 1117295)", "format": "functional"}, "[25]": {"biological_target": "Prothrombin (Homo sapiens, UniProt P00734)", "assay": "Thrombin 1536 HTS Dose Response Confirmation. [Related pubchem assays: 1046 (Thrombin 1536 HTS; hits were confirmed in this assay)]", "format": "functional"}, "[26]": {"biological_target": "Induced myeloid leukemia cell differentiation protein Mcl-1 (Homo sapiens, UniProt Q07820)", "sequence (Q07820 whole entry)": "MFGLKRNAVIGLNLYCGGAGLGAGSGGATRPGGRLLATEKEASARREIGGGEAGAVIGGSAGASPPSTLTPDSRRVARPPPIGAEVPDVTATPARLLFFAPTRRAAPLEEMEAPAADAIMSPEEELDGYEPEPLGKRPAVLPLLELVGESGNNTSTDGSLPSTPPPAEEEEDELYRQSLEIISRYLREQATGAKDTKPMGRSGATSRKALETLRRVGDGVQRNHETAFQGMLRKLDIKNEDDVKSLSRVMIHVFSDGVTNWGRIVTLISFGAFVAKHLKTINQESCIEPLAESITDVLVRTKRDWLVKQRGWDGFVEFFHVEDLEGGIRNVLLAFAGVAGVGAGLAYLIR", "format": "functional"}, "[27]": {"assay": "cells", "format": "functional, cell-based", "settings": "INS-1E"}, "[28]": {"assay": "Dose-response inhibition of insulin secretion in a rat insulinoma line at 5 mM glucose (AID 1117331)", "format": "functional, cell-based", "settings": "INS-1E"}, "[29]": {"biological_target": "Ephrin type-A receptor 4 (Mus musculus, UniProt Q03137)", "sequence (Q03137 whole entry)": "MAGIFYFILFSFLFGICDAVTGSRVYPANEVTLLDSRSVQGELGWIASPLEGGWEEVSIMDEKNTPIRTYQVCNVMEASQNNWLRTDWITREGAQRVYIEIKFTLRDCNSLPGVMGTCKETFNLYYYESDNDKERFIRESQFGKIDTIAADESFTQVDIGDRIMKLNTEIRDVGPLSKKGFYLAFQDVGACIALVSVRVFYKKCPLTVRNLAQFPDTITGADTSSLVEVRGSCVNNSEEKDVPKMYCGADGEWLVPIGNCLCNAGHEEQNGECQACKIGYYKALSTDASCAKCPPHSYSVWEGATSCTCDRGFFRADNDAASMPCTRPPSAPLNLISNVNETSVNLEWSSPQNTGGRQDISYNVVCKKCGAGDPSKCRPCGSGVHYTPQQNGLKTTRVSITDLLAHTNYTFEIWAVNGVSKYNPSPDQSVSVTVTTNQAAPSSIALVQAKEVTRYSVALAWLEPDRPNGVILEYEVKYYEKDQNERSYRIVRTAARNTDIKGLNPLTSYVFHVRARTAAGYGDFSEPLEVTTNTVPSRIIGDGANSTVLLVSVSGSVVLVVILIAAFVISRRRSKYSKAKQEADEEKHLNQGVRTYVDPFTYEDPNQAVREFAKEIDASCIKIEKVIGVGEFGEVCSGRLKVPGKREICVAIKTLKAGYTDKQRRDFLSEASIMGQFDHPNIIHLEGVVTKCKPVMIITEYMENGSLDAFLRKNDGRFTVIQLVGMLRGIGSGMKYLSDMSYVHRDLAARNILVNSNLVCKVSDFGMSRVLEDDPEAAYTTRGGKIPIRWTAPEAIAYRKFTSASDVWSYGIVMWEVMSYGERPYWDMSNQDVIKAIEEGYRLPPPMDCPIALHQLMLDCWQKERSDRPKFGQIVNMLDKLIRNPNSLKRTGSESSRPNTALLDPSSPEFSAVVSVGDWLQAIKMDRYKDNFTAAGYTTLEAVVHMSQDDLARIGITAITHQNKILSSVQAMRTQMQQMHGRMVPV", "assay": "inhibitors of EphA4 binding to KYL peptide, primary screen, biochemical, colorimetric, mouse EphA4 (AID 689)", "format": "functional"}, "[30]": {"biological_target": "Cytochrome P450 2C19 (Homo sapiens, UniProt P33261)", "sequence (P33261 whole entry)": "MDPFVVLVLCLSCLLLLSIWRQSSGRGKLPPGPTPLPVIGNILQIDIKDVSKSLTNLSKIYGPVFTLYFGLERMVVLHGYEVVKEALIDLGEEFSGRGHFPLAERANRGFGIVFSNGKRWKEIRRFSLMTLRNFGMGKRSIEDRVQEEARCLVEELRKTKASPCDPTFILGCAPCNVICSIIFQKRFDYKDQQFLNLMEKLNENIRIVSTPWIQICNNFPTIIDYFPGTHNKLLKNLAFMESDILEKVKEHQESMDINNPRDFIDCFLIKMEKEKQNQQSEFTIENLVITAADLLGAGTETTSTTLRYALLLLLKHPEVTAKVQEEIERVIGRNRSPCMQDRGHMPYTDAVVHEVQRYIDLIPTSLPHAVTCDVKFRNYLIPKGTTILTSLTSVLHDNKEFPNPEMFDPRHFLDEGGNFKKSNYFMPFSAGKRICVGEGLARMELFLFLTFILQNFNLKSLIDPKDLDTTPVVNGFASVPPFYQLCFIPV", "assay": "Cytochrome panel assay with activity outcomes. Panel member name: p450-cyp2c19 Compounds with AC50 equal or less than 10 uM are considered active", "format": "functional"}, "[31]": {"biological_target": "UDP-galactopyranose mutase (Mycobacterium tuberculosis, UniProt P9WIQ1)", "sequence (P9WIQ1 whole entry)": "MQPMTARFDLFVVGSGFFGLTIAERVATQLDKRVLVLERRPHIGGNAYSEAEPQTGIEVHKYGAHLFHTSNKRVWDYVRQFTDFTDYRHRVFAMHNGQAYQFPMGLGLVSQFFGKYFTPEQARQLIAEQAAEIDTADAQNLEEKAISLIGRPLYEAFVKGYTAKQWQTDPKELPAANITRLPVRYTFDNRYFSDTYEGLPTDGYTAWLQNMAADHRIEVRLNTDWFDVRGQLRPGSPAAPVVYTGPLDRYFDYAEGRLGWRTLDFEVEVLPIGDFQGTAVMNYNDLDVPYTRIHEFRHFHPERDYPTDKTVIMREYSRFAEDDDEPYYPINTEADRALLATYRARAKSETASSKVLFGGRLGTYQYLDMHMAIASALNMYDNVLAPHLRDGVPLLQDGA", "assay": "Inhibitors of Mycobacterium tuberculosis UDP-galactopyranose mutase (UGM) enzyme Measured in Biochemical System Using Plate Reader - 2105-02_Inhibitor_Dose_CherryPick_Activity. [Related pubchem assays (depositor defined):AID504439]"}, "[32]": {"biological_target": "NADPH oxidase 1 (Homo sapiens, UniProt Q9Y5S8)", "sequence (Q9Y5S8 whole entry)": "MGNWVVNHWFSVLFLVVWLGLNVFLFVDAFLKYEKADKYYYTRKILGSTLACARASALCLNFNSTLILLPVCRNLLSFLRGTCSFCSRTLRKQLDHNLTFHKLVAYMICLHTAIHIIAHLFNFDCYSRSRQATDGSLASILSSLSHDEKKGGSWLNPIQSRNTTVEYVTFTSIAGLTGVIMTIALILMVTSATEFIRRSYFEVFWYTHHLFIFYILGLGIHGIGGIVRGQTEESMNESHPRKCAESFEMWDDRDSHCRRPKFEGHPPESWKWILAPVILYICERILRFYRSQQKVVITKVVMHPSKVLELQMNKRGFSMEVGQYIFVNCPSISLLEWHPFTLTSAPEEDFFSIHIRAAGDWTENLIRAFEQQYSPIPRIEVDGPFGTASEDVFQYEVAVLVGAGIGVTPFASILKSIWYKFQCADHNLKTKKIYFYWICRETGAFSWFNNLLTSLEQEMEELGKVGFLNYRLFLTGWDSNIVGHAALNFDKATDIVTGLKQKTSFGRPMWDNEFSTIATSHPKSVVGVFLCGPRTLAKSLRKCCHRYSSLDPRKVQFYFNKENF", "assay": "Late-stage luminescence-based cell-based dose response assay to identify inhibitors of NADPH oxidase 1 (NOX1): Purchased analogs 2.", "format": "functional"}},
  "note": "“And” between values parts separate entries of the source, which are not always exact repeats. Identical values can stand only once. The source made the active and inactive calls.",
  "data": [
    {"smiles": "CC(C)c1cc(C(C)C)c(S(=O)(=O)N2c3ccccc3[C@]3(Br)C[C@H]4C(=O)N[C@@H](Cc5ccccc5)C(=O)N4[C@H]23)c(C(C)C)c1", "values": [
      {"measurement": "CC50", "setting": "[1]", "result": "13.7 µM (active)"},
      {"measurement": "IC50", "setting": "[2]", "result": "39.9 µM (active)"}
    ]},
    {"smiles": "O=C1C(Nc2ccc(F)cc2)=C(N2CCCCC2)C(=O)c2ccccc21", "values": [
      {"measurement": "AC50", "setting": "[3]", "result": "25.8 µM (active)"},
      {"measurement": "AC50", "setting": "[4]", "result": "8.63 µM (active)"},
      {"measurement": "AC50", "setting": "[5]", "result": "8.64 µM (active)"},
      {"measurement": "AC50", "setting": "[6]", "result": "57.6 µM (active)"},
      {"measurement": "AC50", "setting": "[7]", "result": "14.1 µM (active)"},
      {"measurement": "AC50", "setting": "[8]", "result": "27.4 µM (active)"},
      {"measurement": "AC50", "setting": "[9]", "result": "2.24 µM (active)"},
      {"measurement": "AC50", "setting": "[10]", "result": "14.1 µM (active)"}
    ]},
    {"smiles": "CCC(COC(=O)c1cc(OC)c(OC)c(OC)c1)(c1ccccc1)N(C)C", "note": "(configuration not stated)", "values": [
      {"measurement": "EC50", "setting": "[11]", "result": "> 92.5 µM (inactive)"},
      {"measurement": "IC50", "setting": "[12]", "result": "> 20 µM (inactive)"},
      {"measurement": "EC50", "setting": "[13]", "result": "> 92.5 µM (inactive) and 65.1 µM (inactive)"},
      {"measurement": "EC50", "setting": "[14]", "result": "> 92.5 µM (inactive)"},
      {"measurement": "IC50", "setting": "[15]", "result": "> 20 µM (inactive)"},
      {"measurement": "IC50", "setting": "[16]", "result": "> 20 µM (inactive)"},
      {"measurement": "IC50", "setting": "[17]", "result": "142 nM (active)"},
      {"measurement": "IC50", "setting": "[18]", "result": "> 10 µM (inactive)"},
      {"measurement": "IC50", "setting": "[19]", "result": "> 10 µM (inactive)"},
      {"measurement": "IC50", "setting": "[20]", "result": "> 20 µM (inactive)"},
      {"measurement": "IC50", "setting": "[21]", "result": "2.45 µM (active)"},
      {"measurement": "IC50", "setting": "[22]", "result": "> 20 µM (inactive)"},
      {"measurement": "IC50", "setting": "[23]", "result": "1.61 µM (active)"}
    ]},
    {"smiles": "COC(=O)C1=C(C)N(Cc2cccc(C(F)(F)F)c2)C(NCc2ccccc2)=NC1c1ccccc1C(F)(F)F", "note": "(configuration not stated)", "values": [
      {"measurement": "IC50", "setting": "[24]", "result": "> 96.6 µM (inactive)"}
    ]},
    {"smiles": "O=[N+]([O-])c1ccc(-c2cc(O)n3nc(-c4ccc(Cl)cc4)cc3n2)cc1", "values": [
      {"measurement": "IC50", "setting": "[25]", "result": "> 50 µM (not active)"},
      {"measurement": "IC50", "setting": "[26]", "result": "1.72 µM (active)"}
    ]},
    {"smiles": "Oc1ccc(CCNCCCCCCNCCc2ccccc2)cc1O", "note": "[DOPEXAMINE]", "values": [
      {"measurement": "IC50", "setting": "[27]", "result": "> 33.3 µM (inactive)"},
      {"measurement": "IC50", "setting": "[28]", "result": "> 33.3 µM (inactive)"}
    ]},
    {"smiles": "CCCCn1nc(-c2ccccc2)c2nc3ccccc3nc21", "values": [
      {"measurement": "IC50", "setting": "[29]", "result": "13.1 µM (active)"},
      {"measurement": "AC50", "setting": "[30]", "result": "inconclusive"},
      {"measurement": "AC50", "setting": "[31]", "result": "41.9 µM (active)"}
    ]},
    {"smiles": "O=[N+]([O-])c1ccc(/C=N/Nc2c(Cl)cc(Cl)cc2Cl)cc1", "values": [
      {"measurement": "IC50", "setting": "[32]", "result": "> 17 µM (not active)"}
    ]}
  ]
}
